System: fungi in Onychomycosis and tinea pedis
Assay: Tolnaftate solution concentration sufficient to kill the fungi
Conditions: used in a penetrating base
From the text: Tolnaftate USP (known by the trade name Tinactin ™) is a white crystalline powder that has been used as a primary agent in anti-fungal preparations. […] Other anti-fungal agents effective in fighting the fungi causing Onychomycosis and tinea pedis and suitable for use in the present invention are: Clotrimazole, Tioconazole, Nystatin, Terconazole, Butoconazole Nitrate, Unecylenic Acid, Clioquinol, Ciclopirox, Olamine, Econazole Nitrate, Triacetin, Miconazole, Flucytosine, and Ketoconazole.

Cc1cccc(N(C)C(=S)Oc2ccc3ccccc3c2)c1 [Tolnaftate]
solution concentration sufficient to kill the fungi: 1%

From US6391879B1, “Therapeutic anti-fungal nail preparation” (Astan, Inc., priority 1998, dated 2002)
